Some test systems named below: CCRF-CEM; DU-145; HCC 2998; HCT-15; HOP-92; HT-29; K562; MCF7; OVCAR-4; RPMI-8226; SF-268; SF-295; SF-539; SK-MEL-5; SK-OV-3; SR; T47D; UACC-62; UO-31; DLD-1.
Holding throughout (test): NCI anticancer screen, dose series, 48 h

Structures are written as SMILES.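 Test compounds were applied to cells in 96-well plates for 48 hours at 5 doses. GI50 is the concentration that inhibits growth by half.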 The source made the active and inactive calls. Rule as the data show it: active = GI50 up to about 1.1 µM and inactive = higher.

As for `O=C1C=CC2(C=C1)O[C@H](Cc1ccccc1)[C@@H](Cc1ccccc1)O2`, the GI50 in the test on CCRF-CEM is 0.102 µM (active); in the test on DU-145, 1.26 µM (inactive); with HCC 2998 it was 2.64 µM (inactive); with HCT-15, 0.243 µM; in the test on HOP-92, 1.01 µM (active); with HT-29 it was 0.964 µM (active). Also, the GI50 with K562 was 0.388 µM (active); in the test on MCF7 it was 0.256 µM (active); with OVCAR-4 it was 0.347 µM (active); in the test with RPMI-8226 it was 0.177 µM (active); in the test with SF-268, 0.755 µM (active); in the test with SF-295, 2.17 µM (inactive). The GI50 was 0.37 µM (active) in the test on SF-539; 0.568 µM (active) in the test on SK-MEL-5; 5.85 µM (inactive) with SK-OV-3; 0.11 µM (active) in the test with SR; 0.44 µM (active) in the test with T47D; 1.66 µM (inactive) in the test on UACC-62. The GI50 with UO-31 was 0.258 µM (active).

Turning to `Cc1cc2nc3c(=O)n(C)c(=O)nc-3n(-c3ccc(Cl)cc3)c2cc1C`, the GI50 in the test on CCRF-CEM is 13.6 µM (inactive); with DLD-1 it was 14.5 µM (inactive); in the test with HCC 2998 it was 3.95 µM (inactive); in the test with HCT-15, 3.68 µM; in the test with HOP-92, 13.9 µM (inactive); in the test with HT-29 it was 3.51 µM (inactive). For the same compound, the GI50 is 12.8 µM (inactive) with K562; 5.16 µM (inactive) in the test on OVCAR-4; 6.37 µM (inactive) in the test with RPMI-8226; 11.4 µM (inactive) in the test with SF-268; 12.2 µM (inactive) in the test on SF-295; 11.2 µM (inactive) with SF-539. For the same compound, the GI50 in the test with SK-MEL-5 was 1.72 µM (inactive); with SK-OV-3 it was 25.6 µM (inactive); in the test with UACC-62, 2.91 µM (inactive); in the test with UO-31, 20 µM (inactive).

For the compound `CC(=O)c1ccccc1NS(=O)(=O)c1ccc2nc(C)n(NS(=O)(=O)c3ccccc3C(C)=O)c(=O)c2c1`, the GI50 is > 100 µM (inactive) with CCRF-CEM; > 100 µM (inactive) with DU-145; > 100 µM (inactive) in the test with HCC 2998; above 100 µM in the test with HCT-15; > 100 µM (inactive) in the test with HOP-92; > 100 µM (inactive) in the test with HT-29. The GI50 with K562, with MCF7, with OVCAR-4, in the test with RPMI-8226, in the test on SF-268 and in the test on SF-295 was > 100 µM (inactive) in each case. The GI50 in the test with SF-539, in the test with SK-MEL-5, in the test on SK-OV-3, in the test on SR, with T47D and in the test on UACC-62 was > 100 µM (inactive) each time. The GI50 in the test with UO-31 was 37.3 µM (inactive).

On to `Cc1cc(N(CCC#N)CCC#N)ccc1/C=C1/N=C(c2ccccc2)N(N)C1=O`, for which the GI50 in the test with CCRF-CEM was 61.7 µM (inactive); in the test with DLD-1, > 100 µM (inactive); in the test with HCC 2998, > 100 µM (inactive); in the test on HCT-15 it was above 100 µM; with HOP-92 it was 30 µM (inactive); with HT-29, > 100 µM (inactive). The GI50 is 53.5 µM (inactive) with K562; 34.8 µM (inactive) in the test on OVCAR-4; > 100 µM (inactive) in the test on RPMI-8226; 60.1 µM (inactive) in the test on SF-268; 46.1 µM (inactive) in the test on SF-295; 60.8 µM (inactive) with SF-539. In addition, the GI50 with SK-MEL-5 is > 100 µM (inactive); in the test on SK-OV-3 it was > 100 µM (inactive); in the test on UACC-62 it was 99.8 µM (inactive); in the test with UO-31, > 100 µM (inactive).

On to `CC[C@@]1(O)C(=O)OCc2c1cc1n(c2=O)Cc2c-1nc1ccccc1c2/C=N\NC(=O)C(N)CO` (stereo partly specified), for which the GI50 is 0.0474 µM (active) in the test with CCRF-CEM; 0.379 µM (active) in the test with DU-145; 12.1 µM (inactive) in the test with HCC 2998; 4.1 µM in the test with HCT-15; 1.87 µM (inactive) in the test on HOP-92; 2.86 µM (inactive) with HT-29. The GI50 in the test with K562 was 1.05 µM (active); with MCF7, 0.27 µM (active); in the test with OVCAR-4, 14.2 µM (inactive); in the test on RPMI-8226, 1.13 µM (inactive); with SF-268, 0.0643 µM (active); with SF-295, 0.505 µM (active). The GI50 in the test with SF-539 is 0.138 µM (active); in the test on SK-MEL-5, 0.684 µM (active); in the test on SK-OV-3, 2.36 µM (inactive); with SR, 0.0386 µM (active); in the test on T47D, 0.239 µM (active); with UACC-62, < 0.0395 µM (active). The GI50 in the test on UO-31 is 0.667 µM (active).

Turning to `CC(=O)NCCC1CNc2ccccc21` (stereo unspecified), the GI50 is > 100 µM (inactive) in the test on CCRF-CEM; > 100 µM (inactive) in the test with DU-145; > 100 µM (inactive) in the test with HCC 2998; above 100 µM in the test on HCT-15; > 100 µM (inactive) in the test with HOP-92; > 100 µM (inactive) in the test on HT-29. Moreover, the GI50 with K562, in the test with MCF7, in the test with OVCAR-4, in the test with RPMI-8226, with SF-268 and in the test with SF-295 was > 100 µM (inactive) in each case. The GI50 with SF-539, with SK-MEL-5, with SK-OV-3, in the test with SR, in the test on T47D and with UACC-62 was > 100 µM (inactive) in each case. The GI50 with UO-31 was > 100 µM (inactive).

As for `CC(=O)c1cc([N+](=O)[O-])ccc1OCC(=O)O`, the GI50 with CCRF-CEM was > 100 µM (inactive); in the test on DLD-1 it was > 100 µM (inactive); in the test on HCC 2998, > 100 µM (inactive); with HCT-15, above 100 µM; in the test on HOP-92, > 100 µM (inactive); in the test with HT-29 it was > 100 µM (inactive). Moreover, the GI50 in the test with K562, in the test with OVCAR-4, in the test on RPMI-8226, in the test with SF-268, with SF-295 and with SF-539 was > 100 µM (inactive) throughout. The GI50 in the test with SK-MEL-5, with SK-OV-3, in the test on UACC-62 and in the test with UO-31 was > 100 µM (inactive) throughout.

Consider `c1ccc(C(NC2CCCCC2NCCNC2CCCCC2NC(c2ccccc2)(c2ccccc2)c2ccccc2)(c2ccccc2)c2ccccc2)cc1` (stereo unspecified), for which the GI50 was 42.4 µM (inactive) with CCRF-CEM; 96.6 µM (inactive) with DU-145; > 10 µM (inactive) in the test on HCC 2998; above 100 µM with HCT-15; 13.9 µM (inactive) in the test on HOP-92; > 100 µM (inactive) with HT-29. Besides, the GI50 in the test on K562 is 44.5 µM (inactive); in the test on MCF7, 17.7 µM (inactive); in the test with OVCAR-4, 26.6 µM (inactive); in the test with RPMI-8226, 7.8 µM (inactive); in the test on SF-268, 21.3 µM (inactive); in the test with SF-295, > 100 µM (inactive). In addition, the GI50 was 44 µM (inactive) with SF-539; 39.5 µM (inactive) in the test with SK-MEL-5; 17.8 µM (inactive) with SK-OV-3; 81.7 µM (inactive) with SR; 11.7 µM (inactive) in the test with T47D; 26.2 µM (inactive) in the test with UACC-62. Further, in the test with UO-31, the GI50 is 20.4 µM (inactive).

For the compound `CC(C)c1cccc2sc(NC(=O)C(=O)CC(=O)c3ccc(F)cc3)nc12`, the GI50 is > 100 µM (inactive) in the test on CCRF-CEM; > 100 µM (inactive) in the test with DLD-1; above 100 µM in the test with HCT-15; > 100 µM (inactive) in the test on HOP-92; > 100 µM (inactive) in the test with HT-29; > 100 µM (inactive) with K562. Further, the GI50 in the test on OVCAR-4, in the test on RPMI-8226, with SF-268, in the test with SF-295, in the test with SF-539 and in the test on SK-MEL-5 was > 100 µM (inactive) each time. For the same compound, the GI50 with SK-OV-3, with UACC-62 and in the test with UO-31 was > 100 µM (inactive) throughout.

Turning to `CN(C)CCCCN1c2ccccc2Sc2ccc(C(=O)c3ccccc3)cc21`, the GI50 with CCRF-CEM is 2.27 µM (inactive); in the test on DU-145 it was 3.63 µM (inactive); in the test on HCC 2998, 1.83 µM (inactive); in the test on HCT-15, 3.51 µM; in the test with HOP-92, 2.44 µM (inactive); in the test on HT-29, 1.89 µM (inactive). The GI50 in the test with K562 was 1.57 µM (inactive); in the test on MCF7, 1.93 µM (inactive); with OVCAR-4, 3.23 µM (inactive); in the test on RPMI-8226, 2.24 µM (inactive); with SF-268 it was 5.6 µM (inactive); in the test with SF-295 it was 2.15 µM (inactive). Moreover, the GI50 with SF-539 was 3.29 µM (inactive); with SK-MEL-5, 1.82 µM (inactive); with SK-OV-3 it was 13 µM (inactive); with SR, 3.83 µM (inactive); in the test on T47D it was 3.59 µM (inactive); in the test on UACC-62, 2.37 µM (inactive). The GI50 in the test on UO-31 is 2.6 µM (inactive).

Regarding `Nc1ccc(Nc2cc(=O)[nH]c(=O)[nH]2)cc1Cl`, the GI50 in the test with CCRF-CEM is > 100 µM (inactive); with DU-145, > 100 µM (inactive); in the test on HCC 2998, > 100 µM (inactive); in the test on HCT-15 it was above 100 µM; in the test on HOP-92 it was > 100 µM (inactive); in the test on HT-29, > 100 µM (inactive). The GI50 in the test with K562, with MCF7, in the test with OVCAR-4, in the test with RPMI-8226, in the test on SF-268 and in the test with SF-295 was > 100 µM (inactive) throughout. Further, the GI50 in the test on SF-539, in the test with SK-MEL-5, in the test with SK-OV-3, in the test with SR, in the test with T47D and with UACC-62 was > 100 µM (inactive) throughout. Besides, the GI50 in the test with UO-31 is > 100 µM (inactive).

(Values after ChEMBL document CHEMBL1201862, “PubChem BioAssay data set” (2004).)
